Data taken from ChEMBL document CHEMBL1201862, “PubChem BioAssay data set” (2004).
The source made the active and inactive calls.

Key:
[1] = M. tuberculosis H37Rv growth inhibitors, H37Rv strain (AID 1626); assay type: functional
[2] = A Cell Based Secondary Assay To Explore Cytotoxicity of Compounds that Sensitize Mycobacterium Tuberculosis to Beta-Lactam Antibiotics.; assay type: functional
[3] = blockers of bursicon-stimulated LGR2 cAMP reporter – cell-based, HEK293, CRE-luciferase reporter, cherry pick, set 2, dose response (AID 743343); assay type: functional;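 also: transfected cells were stimulated with diluted bursicon conditioned medium after compound addition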
[4] = target: Neurotensin receptor type 1 (Homo sapiens, UniProt P30989); assay type: functional;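 also: Image-based confirmatory dose-response assay measuring agonist activity at NTR1; NTR1-expressing U2OS osteosarcoma cells imaged for beta-arrestin GFP spot formation; agonist potency where compounds increase beta-arrestin recruitment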
[5] = viability of PTEN-deleted HCT116 cells – cell-based, HCT116 PTEN knockout, dose response (AID 1047); assay type: functional;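 also: HCT116 colon tumor cells with PTEN knocked out; cells exposed to compound for 60 hours before readout; potency for loss of cell viability measured by luminescence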
[6] = viability of HCT116 lacking mutant beta-catenin – cell-based, human colon tumor, dose response (AID 1045); assay type: functional;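 also: HCT116 colon tumor cells with beta catenin knocked out; cells exposed to compound for 60 hours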
[7] = toxicity toward HepG2 liver cells – cell-based, plate reader, cherry-pick, antagonist series, cytotoxicity control, dose response (AID 743416); assay type: functional
[8] = blockade of melanocortin 4 receptor signaling – cell-based, plate reader, cherry pick, counter-screen for LGR2 antagonist project, dose response (AID 743444); assay type: functional;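 also: transfected HEK 293 cells stimulated with alpha-MSH peptide; potency of inhibitors of the alpha-MSH evoked signal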
[9] = viability loss in HEK293 cells – cell-based, plate reader, cherry-picked samples, cytotoxicity control, dose response (AID 743446); assay type: functional
[10] = A549 cell cytotoxicity, dose response, cytotoxicity control, plate reader, cherry-pick, antagonist series (AID 743412); assay type: functional, cell-based
[11] = target: T1, Neuropeptide Y receptor type 2 (Homo sapiens, UniProt P49146); assay: IC50 for human NPY-Y2 blockade – cell-based, counter-screen for NPY-Y1 antagonist project, dose response (AID 1278); assay type: functional
T1 sequence (P49146 whole entry): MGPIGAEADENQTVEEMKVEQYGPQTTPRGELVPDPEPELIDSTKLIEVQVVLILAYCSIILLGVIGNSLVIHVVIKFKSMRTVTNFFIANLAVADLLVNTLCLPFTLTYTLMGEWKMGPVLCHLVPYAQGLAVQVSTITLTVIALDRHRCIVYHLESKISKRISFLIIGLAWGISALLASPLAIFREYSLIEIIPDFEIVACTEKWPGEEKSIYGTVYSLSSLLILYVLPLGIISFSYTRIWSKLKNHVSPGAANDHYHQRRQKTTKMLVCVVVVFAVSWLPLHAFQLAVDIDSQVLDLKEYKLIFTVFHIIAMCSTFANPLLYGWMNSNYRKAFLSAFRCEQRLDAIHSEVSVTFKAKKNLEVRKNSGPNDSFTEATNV

[12] = target: T2, Neuropeptide Y receptor type 1 (Homo sapiens, UniProt P25929); assay: IC50 of human NPY-Y1 blockers – cell-based, dose response (AID 1277); assay type: functional
T2 sequence (P25929 whole entry): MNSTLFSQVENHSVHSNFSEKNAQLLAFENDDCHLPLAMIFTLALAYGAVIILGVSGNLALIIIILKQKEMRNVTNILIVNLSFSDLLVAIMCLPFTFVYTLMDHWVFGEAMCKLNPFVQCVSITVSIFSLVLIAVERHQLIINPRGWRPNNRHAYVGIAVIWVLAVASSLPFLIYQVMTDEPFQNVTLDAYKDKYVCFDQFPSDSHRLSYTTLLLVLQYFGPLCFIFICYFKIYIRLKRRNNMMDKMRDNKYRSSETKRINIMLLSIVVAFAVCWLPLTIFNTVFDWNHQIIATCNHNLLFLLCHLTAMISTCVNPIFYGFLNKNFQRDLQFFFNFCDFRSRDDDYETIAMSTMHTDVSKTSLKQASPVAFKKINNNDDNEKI

[13] = target: Bcl-2-like protein 1 (Homo sapiens, UniProt Q07817); assay: blockers of BCLXL peptide binding – biochemical, fluorescence polarization, 1536-well, selectivity assay for MCL1 inhibitor project, dose response (AID 2218)
[14] = target: NAD-dependent protein deacylase sirtuin-5, mitochondrial (Homo sapiens, UniProt Q9NXA8); assay: sirtuin-5 deacylation blockers, concentration series – biochemical, fluorescence imaging, cherry-pick, set 5, dose response (AID 720591);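 also: desuccinylation of succinyl peptide AMC substrate read as fluorescence after trypsin release; potency of inhibitors that lower fluorescence and may act on trypsin instead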
[15] = target: T3, Alkaline phosphatase, tissue-nonspecific isozyme (Homo sapiens, UniProt P05186); assay: TNAP enzyme inhibition by screening hits, dose response, selectivity assay for mouse IAP inhibitor project, biochemical, human TNAP, uHTS hits (AID 488906); assay type: functional
T3 sequence (P05186 whole entry): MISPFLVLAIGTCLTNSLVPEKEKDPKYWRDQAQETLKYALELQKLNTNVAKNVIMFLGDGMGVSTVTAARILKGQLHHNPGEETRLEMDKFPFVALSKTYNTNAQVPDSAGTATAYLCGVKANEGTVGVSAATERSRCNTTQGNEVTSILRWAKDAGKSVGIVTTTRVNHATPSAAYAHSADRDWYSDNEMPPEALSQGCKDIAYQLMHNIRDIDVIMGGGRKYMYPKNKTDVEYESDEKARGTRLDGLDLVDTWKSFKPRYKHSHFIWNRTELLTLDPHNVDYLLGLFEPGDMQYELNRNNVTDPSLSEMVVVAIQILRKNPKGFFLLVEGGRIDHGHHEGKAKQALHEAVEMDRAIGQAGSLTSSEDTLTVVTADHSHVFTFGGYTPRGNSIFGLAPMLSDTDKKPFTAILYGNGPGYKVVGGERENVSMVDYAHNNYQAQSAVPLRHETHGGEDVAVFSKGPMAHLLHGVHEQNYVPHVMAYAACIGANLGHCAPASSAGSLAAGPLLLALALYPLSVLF

[16] = target: T4, Histone-lysine N-methyltransferase NSD2 (Homo sapiens, UniProt O96028); assay type: biochemical
T4 sequence (O96028 whole entry): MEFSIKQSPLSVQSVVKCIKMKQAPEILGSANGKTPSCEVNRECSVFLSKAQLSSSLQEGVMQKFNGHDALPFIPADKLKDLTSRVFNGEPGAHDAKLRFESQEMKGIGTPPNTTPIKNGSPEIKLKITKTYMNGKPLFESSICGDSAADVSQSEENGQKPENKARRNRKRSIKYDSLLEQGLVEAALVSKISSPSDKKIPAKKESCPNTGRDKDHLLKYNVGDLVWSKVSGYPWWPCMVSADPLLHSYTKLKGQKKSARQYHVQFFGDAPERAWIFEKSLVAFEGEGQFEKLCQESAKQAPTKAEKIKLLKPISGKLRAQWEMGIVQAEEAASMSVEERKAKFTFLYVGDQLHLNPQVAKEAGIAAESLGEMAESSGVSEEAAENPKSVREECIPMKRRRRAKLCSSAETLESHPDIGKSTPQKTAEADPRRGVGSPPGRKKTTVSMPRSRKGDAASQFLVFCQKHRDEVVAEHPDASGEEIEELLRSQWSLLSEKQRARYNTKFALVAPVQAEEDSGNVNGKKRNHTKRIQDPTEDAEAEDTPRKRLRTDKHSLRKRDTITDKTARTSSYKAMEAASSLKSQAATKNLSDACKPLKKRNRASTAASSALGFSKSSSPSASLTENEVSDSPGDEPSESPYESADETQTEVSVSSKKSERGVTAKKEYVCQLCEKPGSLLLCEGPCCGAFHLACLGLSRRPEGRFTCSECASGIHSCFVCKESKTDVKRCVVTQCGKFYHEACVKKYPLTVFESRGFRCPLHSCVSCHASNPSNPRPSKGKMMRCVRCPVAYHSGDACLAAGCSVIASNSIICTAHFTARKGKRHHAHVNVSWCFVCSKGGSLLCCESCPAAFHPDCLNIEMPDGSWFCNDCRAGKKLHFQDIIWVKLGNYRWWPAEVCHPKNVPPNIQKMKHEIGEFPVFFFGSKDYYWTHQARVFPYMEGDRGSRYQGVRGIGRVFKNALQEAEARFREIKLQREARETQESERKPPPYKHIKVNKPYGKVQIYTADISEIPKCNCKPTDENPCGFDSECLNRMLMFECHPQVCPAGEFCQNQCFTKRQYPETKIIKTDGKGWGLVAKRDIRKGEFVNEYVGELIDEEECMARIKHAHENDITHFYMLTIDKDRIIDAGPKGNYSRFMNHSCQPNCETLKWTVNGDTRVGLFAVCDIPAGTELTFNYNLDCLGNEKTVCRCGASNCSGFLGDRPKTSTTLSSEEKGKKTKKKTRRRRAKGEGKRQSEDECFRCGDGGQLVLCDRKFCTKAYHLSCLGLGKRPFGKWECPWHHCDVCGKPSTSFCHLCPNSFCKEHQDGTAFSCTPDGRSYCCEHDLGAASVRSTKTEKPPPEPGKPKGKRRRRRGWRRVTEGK

[17] = target: Intestinal-type alkaline phosphatase (Mus musculus, UniProt P24822); assay: PubChem AID 488785; assay type: functional
[18] = target: Intestinal-type alkaline phosphatase (Homo sapiens, UniProt P09923); assay: inhibition of human intestinal alkaline phosphatase – biochemical, dose response (AID 488876); assay type: functional
[19] = target: Induced myeloid leukemia cell differentiation protein Mcl-1 (Homo sapiens, UniProt Q07820); assay: blockers of MCL1 binding to BIM peptide – biochemical, fluorescence polarization, BIM-BH3 peptide, 1536-well, dose response (AID 2217)
[20] = target: Voltage-gated inwardly rectifying potassium channel KCNH2 (Homo sapiens, UniProt Q12809); assay: concentration-dependent hERG rescue from blockers – cell-based, thallium flux, dose response (AID 2121); assay type: ADME
[21] = target: T5, Carboxy-terminal domain RNA polymerase II polypeptide A small phosphatase 1 (Homo sapiens, UniProt Q9GZU7); assay: CTDSP1 inhibitors, concentration-response, biochemical, absorbance readout, ultra-high-throughput screen actives (AID 540297); assay type: functional
T5 sequence (Q9GZU7 whole entry): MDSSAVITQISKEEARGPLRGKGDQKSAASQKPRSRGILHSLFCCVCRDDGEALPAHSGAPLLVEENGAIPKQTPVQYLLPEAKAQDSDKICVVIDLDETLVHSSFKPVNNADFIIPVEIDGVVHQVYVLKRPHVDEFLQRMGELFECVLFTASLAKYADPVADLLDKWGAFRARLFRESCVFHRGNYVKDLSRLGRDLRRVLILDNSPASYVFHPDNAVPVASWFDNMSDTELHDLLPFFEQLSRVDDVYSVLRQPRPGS

[22] = target: Eukaryotic translation initiation factor 4E (Mus musculus, UniProt P63073); assay: blockers of eIF4G binding by eIF4E – biochemical, TR-FRET, dose response (AID 855); assay type: functional;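 also: potency for disrupting eIF4E binding to eIF4GI seen as loss of FRET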
[23] = target: Cytochrome P450 2C19 (Homo sapiens, UniProt P33261); assay: Cytochrome panel assay with activity outcomes. Panel member name: p450-cyp2c19 Compounds with AC50 equal or less than 10 uM are considered active; assay type: functional; conditions: read-out: AC50
[24] = target: Cytochrome P450 3A4 (Homo sapiens, UniProt P08684);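 also: CYP3A4 tested as one member of a cytochrome P450 panel screen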
[25] = target: Cytochrome P450 2C9 (Homo sapiens, UniProt P11712)
[26] = target: T6, Protein skinhead-1 (Caenorhabditis elegans, UniProt P34707); assay type: functional
T6 sequence (P34707 whole entry): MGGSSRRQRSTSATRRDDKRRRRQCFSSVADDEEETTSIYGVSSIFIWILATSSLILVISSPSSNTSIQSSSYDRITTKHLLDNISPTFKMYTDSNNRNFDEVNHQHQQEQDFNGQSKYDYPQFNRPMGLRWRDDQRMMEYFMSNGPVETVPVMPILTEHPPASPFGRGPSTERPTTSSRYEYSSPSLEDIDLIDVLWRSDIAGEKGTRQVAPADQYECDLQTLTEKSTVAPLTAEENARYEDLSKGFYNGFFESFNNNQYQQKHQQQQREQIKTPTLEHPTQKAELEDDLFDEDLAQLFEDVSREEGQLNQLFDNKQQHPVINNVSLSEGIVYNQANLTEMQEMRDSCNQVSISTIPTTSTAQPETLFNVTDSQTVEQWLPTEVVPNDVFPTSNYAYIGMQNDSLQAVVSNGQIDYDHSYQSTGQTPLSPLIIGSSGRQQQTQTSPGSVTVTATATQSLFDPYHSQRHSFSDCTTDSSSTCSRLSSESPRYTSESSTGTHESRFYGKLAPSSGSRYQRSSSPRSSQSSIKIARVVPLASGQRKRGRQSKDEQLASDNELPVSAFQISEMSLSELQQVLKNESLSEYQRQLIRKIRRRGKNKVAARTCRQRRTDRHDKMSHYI

Sequence of Voltage-gated inwardly rectifying potassium channel KCNH2 (Q12809 whole entry, the tested form may be a part): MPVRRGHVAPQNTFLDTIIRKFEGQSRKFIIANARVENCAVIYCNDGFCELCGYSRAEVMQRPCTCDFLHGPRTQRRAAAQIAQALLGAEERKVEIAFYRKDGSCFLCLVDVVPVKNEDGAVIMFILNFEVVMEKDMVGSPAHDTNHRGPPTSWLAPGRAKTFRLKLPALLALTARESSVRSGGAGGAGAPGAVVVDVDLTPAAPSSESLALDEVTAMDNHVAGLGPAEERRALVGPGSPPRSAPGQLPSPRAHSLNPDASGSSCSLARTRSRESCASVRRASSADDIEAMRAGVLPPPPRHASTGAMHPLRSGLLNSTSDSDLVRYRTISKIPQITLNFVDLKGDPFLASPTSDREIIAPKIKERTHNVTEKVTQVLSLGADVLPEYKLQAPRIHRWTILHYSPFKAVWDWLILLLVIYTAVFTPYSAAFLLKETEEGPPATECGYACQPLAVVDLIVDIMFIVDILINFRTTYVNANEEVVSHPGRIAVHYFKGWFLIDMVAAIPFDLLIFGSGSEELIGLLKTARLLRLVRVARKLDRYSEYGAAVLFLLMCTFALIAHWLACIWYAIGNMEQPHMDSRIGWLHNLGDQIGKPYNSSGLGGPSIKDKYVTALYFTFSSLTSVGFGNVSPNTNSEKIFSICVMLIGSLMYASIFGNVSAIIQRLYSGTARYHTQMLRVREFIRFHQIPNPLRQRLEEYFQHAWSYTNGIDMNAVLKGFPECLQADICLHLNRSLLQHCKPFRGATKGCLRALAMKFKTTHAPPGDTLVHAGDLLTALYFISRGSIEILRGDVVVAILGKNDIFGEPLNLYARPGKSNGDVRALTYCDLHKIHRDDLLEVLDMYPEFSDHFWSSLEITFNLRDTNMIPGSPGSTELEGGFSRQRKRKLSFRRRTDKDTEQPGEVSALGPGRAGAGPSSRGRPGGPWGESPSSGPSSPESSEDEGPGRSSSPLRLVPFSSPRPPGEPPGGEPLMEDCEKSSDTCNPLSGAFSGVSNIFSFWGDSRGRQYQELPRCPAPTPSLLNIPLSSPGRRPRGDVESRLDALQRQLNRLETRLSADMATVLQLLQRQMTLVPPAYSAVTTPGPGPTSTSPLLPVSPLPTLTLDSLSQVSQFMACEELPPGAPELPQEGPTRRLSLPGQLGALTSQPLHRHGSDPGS
Sequence of Bcl-2-like protein 1 (Q07817 whole entry): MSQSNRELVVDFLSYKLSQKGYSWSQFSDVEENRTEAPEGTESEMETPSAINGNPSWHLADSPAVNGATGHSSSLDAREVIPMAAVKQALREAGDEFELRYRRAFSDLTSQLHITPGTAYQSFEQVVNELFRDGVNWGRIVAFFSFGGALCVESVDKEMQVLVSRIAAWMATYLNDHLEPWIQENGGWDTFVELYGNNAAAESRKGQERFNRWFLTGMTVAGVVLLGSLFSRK
Sequence of Induced myeloid leukemia cell differentiation protein Mcl-1 (Q07820 whole entry): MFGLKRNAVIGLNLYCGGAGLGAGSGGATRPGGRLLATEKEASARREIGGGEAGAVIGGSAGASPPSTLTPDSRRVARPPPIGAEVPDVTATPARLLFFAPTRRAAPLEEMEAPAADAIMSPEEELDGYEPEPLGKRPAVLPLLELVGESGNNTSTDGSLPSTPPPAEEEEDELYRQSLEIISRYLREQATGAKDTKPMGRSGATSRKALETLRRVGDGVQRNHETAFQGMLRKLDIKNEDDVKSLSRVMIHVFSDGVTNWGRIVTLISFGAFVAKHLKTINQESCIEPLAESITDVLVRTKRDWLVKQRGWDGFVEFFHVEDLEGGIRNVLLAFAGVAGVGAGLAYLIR
Sequence of Intestinal-type alkaline phosphatase (Homo sapiens, UniProt P09923) (P09923 whole entry): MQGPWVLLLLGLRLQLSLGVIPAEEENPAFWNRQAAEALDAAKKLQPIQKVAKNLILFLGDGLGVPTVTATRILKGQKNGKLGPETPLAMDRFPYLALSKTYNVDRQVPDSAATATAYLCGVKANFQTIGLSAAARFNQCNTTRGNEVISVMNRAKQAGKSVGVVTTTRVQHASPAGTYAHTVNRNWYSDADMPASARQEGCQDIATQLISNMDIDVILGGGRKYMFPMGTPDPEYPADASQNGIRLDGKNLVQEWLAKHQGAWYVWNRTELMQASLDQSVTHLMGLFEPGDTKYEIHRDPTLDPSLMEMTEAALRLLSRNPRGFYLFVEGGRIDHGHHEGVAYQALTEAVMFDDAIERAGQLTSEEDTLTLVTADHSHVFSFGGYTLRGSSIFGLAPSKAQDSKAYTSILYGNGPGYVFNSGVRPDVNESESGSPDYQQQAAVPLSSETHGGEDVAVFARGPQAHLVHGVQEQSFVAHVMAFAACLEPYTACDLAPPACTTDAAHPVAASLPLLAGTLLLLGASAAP
Sequence of Intestinal-type alkaline phosphatase (Mus musculus, UniProt P24822) (P24822 whole entry): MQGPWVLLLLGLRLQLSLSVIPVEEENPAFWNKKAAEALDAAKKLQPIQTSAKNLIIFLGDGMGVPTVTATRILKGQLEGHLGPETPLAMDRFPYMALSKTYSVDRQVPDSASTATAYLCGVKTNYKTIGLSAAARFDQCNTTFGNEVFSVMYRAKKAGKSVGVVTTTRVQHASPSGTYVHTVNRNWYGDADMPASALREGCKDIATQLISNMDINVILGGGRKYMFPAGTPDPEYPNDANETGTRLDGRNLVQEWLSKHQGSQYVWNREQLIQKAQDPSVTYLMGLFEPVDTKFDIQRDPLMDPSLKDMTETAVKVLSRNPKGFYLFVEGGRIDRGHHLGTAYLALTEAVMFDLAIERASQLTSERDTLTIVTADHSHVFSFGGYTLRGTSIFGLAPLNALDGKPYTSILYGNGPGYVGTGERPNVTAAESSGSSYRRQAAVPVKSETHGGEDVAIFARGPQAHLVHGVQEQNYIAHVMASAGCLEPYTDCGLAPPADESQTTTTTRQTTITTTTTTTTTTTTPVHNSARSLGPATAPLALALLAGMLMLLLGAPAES
Sequence of Cytochrome P450 3A4 (P08684 whole entry): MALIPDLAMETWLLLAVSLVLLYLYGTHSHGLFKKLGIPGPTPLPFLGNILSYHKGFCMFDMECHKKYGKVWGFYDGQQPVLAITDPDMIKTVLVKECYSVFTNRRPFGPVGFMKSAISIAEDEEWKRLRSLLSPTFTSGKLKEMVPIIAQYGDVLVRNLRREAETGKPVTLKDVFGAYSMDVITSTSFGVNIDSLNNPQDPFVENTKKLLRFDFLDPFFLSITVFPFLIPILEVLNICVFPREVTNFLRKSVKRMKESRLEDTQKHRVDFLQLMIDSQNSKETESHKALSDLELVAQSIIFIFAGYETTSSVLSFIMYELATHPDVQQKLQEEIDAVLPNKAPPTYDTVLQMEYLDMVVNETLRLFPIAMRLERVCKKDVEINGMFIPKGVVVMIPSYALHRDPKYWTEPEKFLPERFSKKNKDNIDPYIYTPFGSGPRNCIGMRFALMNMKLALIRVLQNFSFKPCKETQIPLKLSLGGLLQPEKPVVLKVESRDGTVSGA
Sequence of Neurotensin receptor type 1 (P30989 whole entry): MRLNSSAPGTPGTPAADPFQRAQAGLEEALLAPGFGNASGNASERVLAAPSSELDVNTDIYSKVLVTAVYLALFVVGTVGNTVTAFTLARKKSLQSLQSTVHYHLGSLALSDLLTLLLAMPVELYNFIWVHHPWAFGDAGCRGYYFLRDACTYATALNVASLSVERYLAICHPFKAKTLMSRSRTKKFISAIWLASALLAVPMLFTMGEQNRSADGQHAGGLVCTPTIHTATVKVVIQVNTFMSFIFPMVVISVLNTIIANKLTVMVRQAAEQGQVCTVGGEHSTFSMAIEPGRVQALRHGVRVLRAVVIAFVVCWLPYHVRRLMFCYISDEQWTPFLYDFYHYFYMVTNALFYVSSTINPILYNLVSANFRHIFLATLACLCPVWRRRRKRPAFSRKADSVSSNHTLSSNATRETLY
Sequence of NAD-dependent protein deacylase sirtuin-5, mitochondrial (Q9NXA8 whole entry): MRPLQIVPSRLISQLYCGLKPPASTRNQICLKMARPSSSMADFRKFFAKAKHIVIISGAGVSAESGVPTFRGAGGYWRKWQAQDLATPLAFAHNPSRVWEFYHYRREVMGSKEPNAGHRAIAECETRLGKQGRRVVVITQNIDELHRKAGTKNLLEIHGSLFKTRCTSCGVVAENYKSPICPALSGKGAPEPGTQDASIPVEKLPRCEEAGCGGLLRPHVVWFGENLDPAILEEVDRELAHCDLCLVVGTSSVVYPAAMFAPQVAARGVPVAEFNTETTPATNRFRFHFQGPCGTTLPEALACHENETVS
Sequence of Cytochrome P450 2C19 (P33261 whole entry): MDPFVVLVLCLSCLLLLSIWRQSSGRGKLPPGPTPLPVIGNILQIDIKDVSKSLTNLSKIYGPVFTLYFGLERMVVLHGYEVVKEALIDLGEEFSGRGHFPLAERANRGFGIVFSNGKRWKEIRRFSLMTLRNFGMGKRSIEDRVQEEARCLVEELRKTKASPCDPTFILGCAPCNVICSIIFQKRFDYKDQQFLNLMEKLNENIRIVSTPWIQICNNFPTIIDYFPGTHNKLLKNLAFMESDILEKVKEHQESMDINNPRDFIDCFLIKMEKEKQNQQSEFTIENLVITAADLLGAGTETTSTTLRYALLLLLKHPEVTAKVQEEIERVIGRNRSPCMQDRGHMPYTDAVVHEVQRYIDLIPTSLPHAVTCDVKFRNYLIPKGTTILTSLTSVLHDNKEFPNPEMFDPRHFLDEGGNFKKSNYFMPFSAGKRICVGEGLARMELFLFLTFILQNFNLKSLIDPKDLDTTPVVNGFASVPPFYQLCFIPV
Sequence of Eukaryotic translation initiation factor 4E (P63073 whole entry): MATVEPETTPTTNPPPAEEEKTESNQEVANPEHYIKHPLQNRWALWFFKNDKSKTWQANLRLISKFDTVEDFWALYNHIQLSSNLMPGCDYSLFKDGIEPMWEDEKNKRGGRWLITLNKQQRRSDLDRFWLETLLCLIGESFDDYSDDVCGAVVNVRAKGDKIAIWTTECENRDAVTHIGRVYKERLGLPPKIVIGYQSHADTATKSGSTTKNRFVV

SMILES: Sc1ncnc2scc(-c3ccc(Br)cc3)c12
- IC50 [1]: > 100 µM (active)
- CC50 [2]: 25.9 µM (active)

SMILES: CC(C)C(=O)N1CCN(c2ccc(NC(=O)c3ccc4c(c3)OCCO4)cc2Cl)CC1
- AC50 [3]: 16 µM (active)
- IC50 [1]: > 100 µM (active)
- EC50 [4]: 18.5 µM (active)
- EC50 [5]: 9.21 µM (active)
- EC50 [6]: 9.2 µM (active)
- AC50 [7]: 17.7 µM (active)
- AC50 [8]: 19.1 µM (active)
- AC50 [9]: 10.7 µM (active)
- AC50 [10]: 22.6 µM (active)

SMILES: CCC(C)(C(=O)NC1CCCC1)N(Cc1ccco1)C(=O)Cc1cccs1 (centres undefined)
- IC50 [11]: > 35 µM (not active)
- IC50 [12]: > 35 µM (not active)

SMILES: N#Cc1c(SCC(=O)Nc2nncs2)sc2c(O)cc(=O)[nH]c12
- IC50 [13]: 96.5 µM (not active)
- AC50 [14]: 4.58 µM (active)
- IC50 [15]: > 100 µM (inactive)
- AC50 [16]: 6.29 µM (active)
- IC50 [17]: 2.3 µM (active)
- IC50 [18]: > 100 µM (inactive)
- IC50 [19]: 25.3 µM (not active)

SMILES: CCN(C(=O)C(C)N1C(=O)/C(=C/c2ccco2)SC1=S)C1CCS(=O)(=O)C1 (centres undefined)
- IC50 [13]: > 109 µM (not active)
- IC50 [15]: 11.1 µM (active)
- IC50 [17]: 0.419 µM (active)
- IC50 [18]: 3.79 µM (active)
- IC50 [19]: > 12.1 µM (not active)

SMILES: O=C1C2CC=CCC2C(=O)N1c1ccc(Cc2ccncc2)cc1 (centres undefined)
- EC50 [20]: 0.86 µM (active)

SMILES: O=C(/C=C/c1ccco1)N(c1ccccn1)c1ccccn1
- IC50 [21]: 3.29 µM (active)
- IC50 [13]: > 109 µM (not active)
- IC50 [22]: 50 µM (inactive)
- IC50 [19]: 19.8 µM (not active)

SMILES: Cc1ccc(NC(=S)c2nc3ccccc3s2)cc1
- AC50 [23]: 0.0251 µM (inconclusive)
- AC50 [24]: 22.4 µM (inconclusive)
- EC50 [20]: 0.46 µM (active)
- AC50 [25]: 10 µM (inconclusive)
- IC50 [26]: > 100 µM (inactive)

SMILES: CC(C)(C)NCc1cc(Br)ccc1OC1CCCC1
- IC50 [11]: 11.2 µM (not active)
- IC50 [12]: 7.43 µM (active)

SMILES: CCOC(=O)c1sc(NN=C(C(=O)OC)C(=O)OC)c(C(=O)OCC)c1C
- EC50 [20]: 0.21 µM (active)

SMILES: N#Cc1ccc(/C=C/C(=O)c2ccc3c(c2)OCO3)cc1
- IC50 [1]: > 100 µM (active)
